# Assays:
# [1] = test system: CYP1A1 mRNA; assay: In vitro CYP induction by cabozantinib; format: in vitro ADME
# [2] = target: CYP2B6 (Homo sapiens, UniProt P20813); assay: Metabolic pathways in vitro: effect of CYP inhibition on cabozantinib metabolite formation; format: in vitro ADME
# [3] = target: CYP3A4 (Homo sapiens, UniProt P08684); assay: as above; format: in vitro ADME
# [4] = test system: female rats and offspring; assay: Pre- and postnatal study in rats; details: oral, gestation day 10 through postnatal day 20
# [5] = target: TRKB (Homo sapiens, UniProt Q16620); assay: In vitro biochemical and/or cellular kinase assays
# Chain of TRKB (Q16620 32-822): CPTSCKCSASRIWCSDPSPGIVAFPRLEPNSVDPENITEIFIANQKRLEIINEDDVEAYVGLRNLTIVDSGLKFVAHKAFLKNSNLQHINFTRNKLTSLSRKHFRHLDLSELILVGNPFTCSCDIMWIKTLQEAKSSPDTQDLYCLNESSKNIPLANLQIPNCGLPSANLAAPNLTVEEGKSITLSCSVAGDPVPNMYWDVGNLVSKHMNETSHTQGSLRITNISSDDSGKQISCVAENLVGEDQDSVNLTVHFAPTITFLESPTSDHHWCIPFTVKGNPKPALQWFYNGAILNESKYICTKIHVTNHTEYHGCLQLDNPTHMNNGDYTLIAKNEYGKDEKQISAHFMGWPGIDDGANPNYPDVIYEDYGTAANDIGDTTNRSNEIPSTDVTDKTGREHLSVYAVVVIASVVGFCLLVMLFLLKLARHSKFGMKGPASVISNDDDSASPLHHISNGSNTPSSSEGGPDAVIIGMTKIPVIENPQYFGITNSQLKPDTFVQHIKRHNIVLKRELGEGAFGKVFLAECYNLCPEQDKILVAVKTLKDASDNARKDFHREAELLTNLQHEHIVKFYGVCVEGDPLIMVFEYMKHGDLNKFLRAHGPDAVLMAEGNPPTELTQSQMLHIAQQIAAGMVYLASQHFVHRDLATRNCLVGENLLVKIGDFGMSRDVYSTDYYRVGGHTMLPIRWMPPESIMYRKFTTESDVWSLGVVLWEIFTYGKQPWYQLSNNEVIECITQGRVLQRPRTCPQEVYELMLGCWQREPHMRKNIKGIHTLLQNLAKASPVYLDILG
# [6] = target: FLT-3 (Homo sapiens, UniProt P36888); assay: In vitro biochemical and/or cellular kinase assays
# Chain of FLT-3 (P36888 27-993): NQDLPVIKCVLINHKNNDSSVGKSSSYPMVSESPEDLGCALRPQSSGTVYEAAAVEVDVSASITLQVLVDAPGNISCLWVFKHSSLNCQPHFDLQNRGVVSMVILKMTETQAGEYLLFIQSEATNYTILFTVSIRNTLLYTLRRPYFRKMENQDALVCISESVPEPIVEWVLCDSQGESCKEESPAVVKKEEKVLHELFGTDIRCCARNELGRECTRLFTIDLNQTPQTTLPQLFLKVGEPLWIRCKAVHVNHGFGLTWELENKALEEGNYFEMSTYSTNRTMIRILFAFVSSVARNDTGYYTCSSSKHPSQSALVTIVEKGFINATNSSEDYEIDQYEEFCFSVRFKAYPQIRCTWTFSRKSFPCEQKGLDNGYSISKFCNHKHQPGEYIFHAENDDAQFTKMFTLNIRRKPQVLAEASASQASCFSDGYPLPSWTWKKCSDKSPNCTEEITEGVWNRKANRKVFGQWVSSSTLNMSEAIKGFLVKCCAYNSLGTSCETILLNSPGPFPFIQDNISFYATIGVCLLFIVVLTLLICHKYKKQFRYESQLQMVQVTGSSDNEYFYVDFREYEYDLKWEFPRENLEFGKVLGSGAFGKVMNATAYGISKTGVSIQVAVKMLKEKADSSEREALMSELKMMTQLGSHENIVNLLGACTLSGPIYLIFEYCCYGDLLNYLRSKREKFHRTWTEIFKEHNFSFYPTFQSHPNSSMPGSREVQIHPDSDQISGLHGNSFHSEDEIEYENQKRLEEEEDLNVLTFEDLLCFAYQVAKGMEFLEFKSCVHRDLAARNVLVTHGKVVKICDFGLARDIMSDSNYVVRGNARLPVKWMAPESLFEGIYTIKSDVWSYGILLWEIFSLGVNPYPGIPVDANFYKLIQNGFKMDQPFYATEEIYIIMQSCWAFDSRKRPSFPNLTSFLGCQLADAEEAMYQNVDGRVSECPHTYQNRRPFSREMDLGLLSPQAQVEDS
# [7] = test system: rasH2 transgenic mice; assay: 26-week carcinogenicity study; details: 26-week study
# [8] = target: CYP2E1 (Homo sapiens, UniProt P05181); assay: Metabolic pathways in vitro: effect of CYP inhibition on cabozantinib metabolite formation; format: in vitro ADME
# [9] = test system: metastatic renal cell carcinoma (mRCC); assay: CABOSUN (ALLIANCE A031203) trial, cabozantinib vs sunitinib as initial targeted therapy
# Procedure: Pts were randomized 1:1 to receive Cabo (60 mg QD) or Sun (50 mg QD, 4 weeks on/2 weeks off). Pts were stratified by the IMDC risk groups (intermediate vs. poor risk) and bone metastasis (yes, no). […] Secondary endpoints included OS, investigator-assessed overall response rate (ORR), and toxicity. The Kaplan-Meier product-limit estimator was used to estimate the OS between treatment arms.
# [10] = target: MRP2 (Homo sapiens, UniProt Q92887); assay: Drug transporter systems in vitro; format: in vitro ADME
# [11] = target: T1, CYP2D6 (Homo sapiens, UniProt P10635); assay: In vitro CYP inhibition by cabozantinib; format: in vitro ADME
# T1 sequence (P10635 whole entry): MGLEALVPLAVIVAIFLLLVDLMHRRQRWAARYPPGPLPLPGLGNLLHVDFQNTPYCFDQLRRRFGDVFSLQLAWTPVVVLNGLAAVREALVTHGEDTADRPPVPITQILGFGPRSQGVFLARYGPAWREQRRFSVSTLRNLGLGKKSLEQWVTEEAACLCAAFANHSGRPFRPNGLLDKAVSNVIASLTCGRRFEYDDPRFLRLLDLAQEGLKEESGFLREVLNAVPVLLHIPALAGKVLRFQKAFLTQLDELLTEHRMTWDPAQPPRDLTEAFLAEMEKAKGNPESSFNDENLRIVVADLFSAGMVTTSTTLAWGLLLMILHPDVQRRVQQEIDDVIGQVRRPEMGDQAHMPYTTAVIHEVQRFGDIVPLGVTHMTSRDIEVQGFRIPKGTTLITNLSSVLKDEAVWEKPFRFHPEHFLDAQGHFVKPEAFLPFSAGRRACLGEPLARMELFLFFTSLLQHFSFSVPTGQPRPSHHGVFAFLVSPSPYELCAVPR
# [12] = target: RET (Homo sapiens, UniProt P07949); assay: In vitro biochemical and/or cellular kinase assays
# Chain of RET (P07949 29-1114): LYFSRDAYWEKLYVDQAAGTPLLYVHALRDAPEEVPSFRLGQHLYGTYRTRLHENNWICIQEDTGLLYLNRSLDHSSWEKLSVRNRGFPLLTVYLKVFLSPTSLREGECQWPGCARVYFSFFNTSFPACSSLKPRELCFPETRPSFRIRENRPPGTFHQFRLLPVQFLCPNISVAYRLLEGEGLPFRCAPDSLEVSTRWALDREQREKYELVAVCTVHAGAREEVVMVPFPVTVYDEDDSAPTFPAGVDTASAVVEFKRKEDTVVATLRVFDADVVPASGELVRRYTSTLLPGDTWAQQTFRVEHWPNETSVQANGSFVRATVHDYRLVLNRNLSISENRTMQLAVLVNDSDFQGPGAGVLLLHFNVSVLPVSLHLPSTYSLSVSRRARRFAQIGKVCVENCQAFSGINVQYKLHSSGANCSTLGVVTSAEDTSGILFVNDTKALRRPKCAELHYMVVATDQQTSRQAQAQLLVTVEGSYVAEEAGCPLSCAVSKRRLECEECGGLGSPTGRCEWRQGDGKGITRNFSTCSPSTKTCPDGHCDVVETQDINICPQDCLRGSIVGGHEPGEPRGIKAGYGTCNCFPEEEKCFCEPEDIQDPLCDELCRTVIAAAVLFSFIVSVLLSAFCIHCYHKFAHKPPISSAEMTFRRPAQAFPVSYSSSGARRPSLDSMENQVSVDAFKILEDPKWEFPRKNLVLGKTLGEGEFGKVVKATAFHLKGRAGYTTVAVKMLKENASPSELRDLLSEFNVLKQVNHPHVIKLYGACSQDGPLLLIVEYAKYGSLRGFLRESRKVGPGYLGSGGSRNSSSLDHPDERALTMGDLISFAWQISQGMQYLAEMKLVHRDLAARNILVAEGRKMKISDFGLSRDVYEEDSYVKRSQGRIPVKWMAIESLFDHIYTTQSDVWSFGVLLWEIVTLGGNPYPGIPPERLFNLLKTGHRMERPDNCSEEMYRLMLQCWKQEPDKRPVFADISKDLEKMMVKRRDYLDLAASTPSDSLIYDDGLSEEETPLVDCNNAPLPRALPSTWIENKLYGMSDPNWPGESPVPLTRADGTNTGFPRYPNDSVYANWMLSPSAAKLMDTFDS
# [13] = target: TIE-2 (Homo sapiens, UniProt Q02763); assay: In vitro biochemical and/or cellular kinase assays
# Chain of TIE-2 (Q02763 23-1124): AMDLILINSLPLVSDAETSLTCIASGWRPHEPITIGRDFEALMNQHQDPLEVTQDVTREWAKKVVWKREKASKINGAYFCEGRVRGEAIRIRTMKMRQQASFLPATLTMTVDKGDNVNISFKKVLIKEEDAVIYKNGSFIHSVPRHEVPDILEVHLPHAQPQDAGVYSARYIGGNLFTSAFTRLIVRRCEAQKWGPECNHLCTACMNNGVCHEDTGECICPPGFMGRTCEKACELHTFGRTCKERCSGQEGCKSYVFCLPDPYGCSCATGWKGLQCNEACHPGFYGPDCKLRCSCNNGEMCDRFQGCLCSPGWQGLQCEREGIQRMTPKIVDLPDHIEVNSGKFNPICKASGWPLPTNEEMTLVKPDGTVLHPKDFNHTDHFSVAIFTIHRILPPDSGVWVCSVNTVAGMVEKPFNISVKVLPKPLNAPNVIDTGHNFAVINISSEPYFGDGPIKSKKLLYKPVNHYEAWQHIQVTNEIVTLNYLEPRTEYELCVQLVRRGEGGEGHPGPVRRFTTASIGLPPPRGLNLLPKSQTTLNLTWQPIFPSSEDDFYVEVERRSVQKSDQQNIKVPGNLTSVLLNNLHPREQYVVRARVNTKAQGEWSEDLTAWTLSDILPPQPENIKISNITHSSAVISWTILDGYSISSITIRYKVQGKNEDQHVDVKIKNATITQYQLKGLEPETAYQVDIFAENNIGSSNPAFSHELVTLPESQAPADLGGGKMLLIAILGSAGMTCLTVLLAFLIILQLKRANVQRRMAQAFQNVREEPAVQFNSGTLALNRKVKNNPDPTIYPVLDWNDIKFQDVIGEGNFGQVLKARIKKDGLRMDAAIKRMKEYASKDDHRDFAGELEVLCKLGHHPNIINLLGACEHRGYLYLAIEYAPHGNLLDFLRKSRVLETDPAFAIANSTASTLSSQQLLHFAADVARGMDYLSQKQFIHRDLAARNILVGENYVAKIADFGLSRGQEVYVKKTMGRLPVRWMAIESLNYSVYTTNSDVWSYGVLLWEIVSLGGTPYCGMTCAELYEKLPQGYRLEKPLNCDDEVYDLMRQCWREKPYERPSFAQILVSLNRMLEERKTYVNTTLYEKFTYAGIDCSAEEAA
# [14] = target: T1, CYP2D6; assay: Metabolic pathways in vitro: effect of CYP inhibition on cabozantinib metabolite formation; format: in vitro ADME
# [15] = test system: pregnant rabbits; assay: Embryo-fetal development study in pregnant rabbits; format: in vivo, rabbit; details: daily oral administration throughout organogenesis
# [16] = test system: juvenile rats; assay: Juvenile rat toxicity study; format: in vivo
# Procedure: […]. Mortalities occurred at doses equal and greater than 1 mg/kg/day (approximately 0.16 times the clinical dose of 60 mg/day based on body surface area).
# [17] = Population pharmacokinetic (PopPK) model (RCC patients and healthy volunteers); format: in vivo, human
# Procedure: The PopPK model was developed using nonlinear mixed effects modeling methodology (NONMEM v7.3) that incorporated 1650 measurable PK concentrations from 345 subjects (Table 10.1).
# Covariates were evaluated for effects on apparent plasma clearance (CL/F) and apparent volume of distribution of the central compartment (VF) (Table 10.2).
# In FIG. 10.1: • F1=fraction of dose in the first depot; • F2=fraction of dose in the second depot; • Ka=depot 1 absorption rate constant • Ka2=depot 2 absorption rate constant; • ALAG1=depot 1 absorption lag time; • ALAG2=depot 2 absorption lag time • Vc/F=apparent volume of distribution (central compartment); • Vp/F=apparent volume of distribution (peripheral compartment); • Q/F=apparent flow between plasma (central) and peripheral compartments; • CL/F=apparent plasma clearance
# [18] = test system: patients; assay: Cabozantinib clinical program: serious events and overdosage case; format: in vivo, human
# [19] = test system: pregnant rats; assay: Embryo-fetal development study in pregnant rats
# [20] = target: CYP2A6 (Homo sapiens, UniProt P11509); assay: Metabolic pathways in vitro: effect of CYP inhibition on cabozantinib metabolite formation; format: in vitro ADME
# [21] = Excretion after single 140 mg 14C-cabozantinib dose in healthy subjects; format: in vivo, human
# Procedure: Approximately 81% of the total administered radioactivity was recovered within a 48-day collection period following a single 140 mg dose of an investigational ^14C-cabozantinib formulation in healthy subjects. Approximately 54% was recovered in feces and 27% in urine.
# [22] = target: CYP1A2 (Homo sapiens, UniProt P05177); assay: In vitro CYP inhibition by cabozantinib; format: in vitro ADME
# [23] = test system: bacteria; assay: Bacterial reverse mutation (Ames) assay; details: in vitro
# [24] = Pharmacokinetics in patients with hepatic impairment; format: in vivo, human
# Source text: Patients with severe hepatic impairment have not been studied.
# [25] = test system: advanced renal cell carcinoma; details: nivolumab study; cited from earlier work
# [26] = final PopPK model parameter estimate
# [27] = final PopPK model parameter estimate, RCC patients and healthy volunteers
# Chain of CYP2B6 (P20813 whole entry): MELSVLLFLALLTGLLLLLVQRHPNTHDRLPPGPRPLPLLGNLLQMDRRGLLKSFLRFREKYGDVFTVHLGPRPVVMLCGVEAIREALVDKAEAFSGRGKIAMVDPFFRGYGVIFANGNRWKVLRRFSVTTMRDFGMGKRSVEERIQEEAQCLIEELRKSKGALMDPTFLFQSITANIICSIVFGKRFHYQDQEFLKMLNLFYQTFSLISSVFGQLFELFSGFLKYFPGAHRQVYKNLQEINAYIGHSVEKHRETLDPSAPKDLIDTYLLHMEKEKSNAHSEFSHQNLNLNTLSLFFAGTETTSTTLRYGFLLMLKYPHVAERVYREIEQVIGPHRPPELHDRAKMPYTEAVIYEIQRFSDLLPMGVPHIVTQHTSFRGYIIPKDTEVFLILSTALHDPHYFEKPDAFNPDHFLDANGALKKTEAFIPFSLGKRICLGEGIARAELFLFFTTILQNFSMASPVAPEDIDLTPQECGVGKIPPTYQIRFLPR
structure (smiles),measurement,setting,value
COc1cc2nccc(Oc3ccc(NC(=O)C4(C(=O)Nc5ccc(F)cc5)CC4)cc3)c2cc1OC [cabozantinib],Induction of CYP1A1 mRNA,[1],inducer
same,Effect of inhibition of CYP2B6 on cabozantinib metabolite formation,[2],no effect
same,CYP3A4 substrate status in vitro,[3],substrate
same,"Doses without adverse maternal toxicity or effect on pregnancy, parturition, lactation, offspring survival, growth or postnatal development",[4],up to 0.3 mg/kg/day
same,Inhibition of tyrosine kinase activity,[5],inhibits
same,Inhibition of tyrosine kinase activity,[6],inhibits
same,Carcinogenicity,[7],not carcinogenic
same,Effect of inhibition of CYP2E1 on cabozantinib metabolite formation,[8],no effect
same,"Diarrhea, grade 3 or 4",[9]; all-causality,10%
same,"Fatigue, grade 3 or 4",[9]; all-causality,6%
same,"Hematologic adverse events, grade 3 or 4",[9]; all-causality,3%
same,"Hypertension, grade 3 or 4",[9]; all-causality,28%
same,"Palmar-plantar erythrodysesthesia, grade 3 or 4",[9]; all-causality,8%
same,All-causality grade 3 or 4 adverse events,[9]; in vivo,67%
same,Median OS,[9]; in vivo,30.3 months
same,ORR,[9]; in vivo,46%
same,"OS adjusted HR, cabozantinib vs sunitinib",[9]; in vivo,0.80
same,Reduction in rate of progression or death vs sunitinib,[9]; in vivo,34%
same,Median PFS,"[9]; untreated mRCC, intermediate or poor risk",8.2 months
same,MRP2 substrate status in vitro,[10],substrate
same,Inhibition of CYP2D6 in vitro,[11],does not inhibit
same,Inhibition of tyrosine kinase activity,[12],inhibits
same,Inhibition of tyrosine kinase activity,[13],inhibits
same,Effect of inhibition of CYP2D6 on cabozantinib metabolite formation,[14],no effect
same,"Dose with visceral malformations and variations (reduced spleen size, missing lung lobe)",[15],3 mg/kg
same,Mortality dose as multiple of the clinical dose of 60 mg/day based on body surface area,[16]; 1 mg/kg/day,approximately 0.16 times
same,Doses at which mortalities occurred,[16]; Postnatal Day 12 through 35 or 70,≥ 1 mg/kg/day
same,Predicted steady-state average concentration,[17]; 20 mg dose level,375 ng/mL
same,Predicted steady-state average concentration,[17]; 40 mg dose level,750 ng/mL
same,Predicted steady-state average concentration,[17]; 60 mg dose level,1125 ng/mL
same,"CL/F (oral clearance), PopPK estimate",[17]; White male,2.23 L/h
same,"Vc/F, PopPK estimate",[17]; White male,81.5 L
same,ALAG1 (depot 1 absorption lag time),[17]; [26],0.459 h
same,ALAG2 (depot 2 absorption lag time),[17]; [26],16.8 h
same,Q/F (apparent flow between plasma (central) and peripheral compartments),[17]; [26],14.2 L/h
same,"Vp/F (apparent volume of distribution, peripheral compartment)",[17]; [26],213 L
same,Ka2 (depot 2 absorption rate constant),[17]; [27],0.102 h⁻¹
same,Ka (depot 1 absorption rate constant),[17]; [27],0.568 h⁻¹
same,CL/F (apparent plasma clearance),"[17]; final PopPK model parameter estimate, White male",2.23 L/h
same,Inter-individual variability of CL/F,"[17]; human, in vivo",46 % CV
same,Lower CL/F in Asian vs White subjects,"[17]; human, in vivo",27%
same,Lower CL/F in female vs male subjects,"[17]; human, in vivo",21%
same,Vd/F,"[17]; human, plasma, oral, final PopPK model parameter estimate, White male, read-out: Vc/F (apparent volume of distribution, central compartment)",81.5 L
same,Vd,"[17]; human, plasma, oral, subject, read-out: Terminal phase volume of distribution, PopPK estimate",319 L
same,Fatal hemorrhages,"[18]; human, in vivo",Fatal hemorrhages also occurred
same,Fatal perforations,"[18]; human, in vivo",Fatal perforations occurred
same,Fatal thrombotic events,"[18]; human, in vivo",Fatal thrombotic events occurred
same,Reversible Posterior Leukoencephalopathy Syndrome (RPLS),"[18]; human, in vivo",occurred
same,Overdosage case findings,[18]; twice the intended dose (200 mg daily) of another formulation for nine days,"Grade 3 memory impairment, Grade 3 mental status changes, Grade 3 cognitive disturbance, Grade 2 weight loss, and Grade 1 increase in BUN"
same,Dose causing increased embryo-fetal lethality compared to controls,[19]; daily oral administration throughout organogenesis,0.03 mg/kg
same,Dose with delayed ossification and skeletal variations,"[19]; female, rat, in vivo, 0.1 mg/kg/day",0.1 mg/kg/day
same,Effect of inhibition of CYP2A6 on cabozantinib metabolite formation,[20],no effect
same,Radioactivity recovered in feces,[21]; 48-day collection,Approximately 54%
same,Radioactivity recovered in urine,[21]; 48-day collection,~27%
same,Unchanged cabozantinib in urine,[21]; 72 hour collection,not detectable
same,"Unchanged cabozantinib, share of total radioactivity in feces",[21]; 72 hour collection,43%
same,Total administered radioactivity recovered,"[21]; within a 48-day collection period, single 140 mg dose",Approximately 81%
same,Inhibition of CYP1A2 in vitro,[22],does not inhibit
same,Mutagenicity,[23],not mutagenic
same,Exposure in patients with mild to moderate hepatic impairment,"[24]; human, in vivo",Increased exposure
same,Increase in exposure (AUC0-inf),[24]; mild (C-P A) hepatic impairment,81%
same,Increase in exposure (AUC0-inf),[24]; moderate (C-P B) hepatic impairment,63%
CO[C@H]1C[C@@H]2CC[C@@H](C)[C@@](O)(O2)C(=O)C(=O)N2CCCC[C@H]2C(=O)O[C@H]([C@H](C)C[C@@H]2CC[C@@H](OCCO)[C@H](OC)C2)CC(=O)[C@H](C)/C=C(\C)[C@@H](O)[C@@H](OC)C(=O)[C@H](C)C[C@H](C)/C=C/C=C/C=C/1C [everolimus],Median OS of comparator arm,[25],19.6 months
same,Median PFS of control arm,[25],4.4 months

# — patent US11141413B2, “Method of treating renal cell carcinoma using N-(4-(6,7-dimethoxyquinolin-4-yloxy)phenyl)-N′-(4-fluorophenyl)cyclopropane-1,1-dicarboxamide, (2S)-hydroxybutanedioate” (Exelixis, Inc., priority 2016, dated 2021)
